Values quoted from earlier work, collected in patent US4571403A, “Antianginal medicated compound” (Institut Organicheskoi Khimii Imeni N.D. Zelinskogo …, priority 1984, dated 1986).
Counter-ions that a name gives are not always drawn.

Test system: myocardium / blood circulation
Settings: prior art; cited from earlier work

Row | SMILES | incompatibility with other pharmaceutical preparations | side effects | adrenergic effect | blood flow / blood supply of ischemized zones of myocardium | contractability of the heart (inotropic effect) | duration of action | therapeutic range | contraindications | systemic arterial pressure
1 | O=[N+]([O-])OCC(CO[N+](=O)[O-])O[N+](=O)[O-] [Trinitroglycerol, trinitroglycerol] | incompatibility with some other pharmaceutical preparations | bad tolerance of the preparation by certain categories of patients accompanied by strong headaches | – | – | – | – | – | – | –
2 | CCCCc1oc2ccccc2c1C(=O)c1cc(I)c(OCCN(CC)CC)c(I)c1 [Cardaron, [2-butyl-3-benzofuranyl]-[4-(2-diethylaminoethoxy)-3,5-diodophenyl]ketone hydrochloride] | – | affection of eye cornea | antiadrenergic preparations with a mixed effect | no selective effect on blood supply of the ischemized zone of myocardium | negative inotropic effect on myocardium | short duration of its action | narrow therapeutic range | – | –
3 | O=C(CCN1CCN2CCCC2C1)N1c2ccccc2Sc2ccc(Cl)cc21 (centres unmarked) [nonachlazine] | – | – | β-adrenostimulating component of the effect on myocardium | – | – | – | – | cannot be administered in the case of kidney and liver diseases | lasting hypertension of the arterial pressure
